The inhibition is the relative decrease from the control value, in per cent.

Assay in all cases: cell-based
What all share (parameters): NanoBRET live-cell target engagement; % occupancy from displacement of tracer K10 on NanoLuc-kinase fusions, mean n=3
Conditions in all cases: HEK293, read-out: % inhibition
A general note: Bioluminescence resonance energy transfer reports proximity on the nanometre scale.

Experiment [1] addresses BRSK2 (Homo sapiens, UniProt Q8IWQ3). Summed up:
(§1)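 Live-cell NanoBRET target engagement: cells expressing kinase–NanoLuc fusion with tracer treated with compound 2 h at 37 °C, 5% CO2. BRET read from donor (450 nm) and acceptor (610/630 nm) emission with 20 μM extracellular NanoLuc inhibitor; % occupancy calculated relative to tracer+DMSO and zero-BRET controls.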

The target of experiment [2] is CDK18 (Homo sapiens, UniProt Q07002). In outline:
as §1

Experiment [3] concerns the target CDK9 (Homo sapiens, UniProt P50750). Summed up:
as §1

Experiment [4] has as its target CDKL5 (Homo sapiens, UniProt O76039). Summed up:
as §1

For experiment [5], the target named is CSNK1D (Homo sapiens, UniProt P48730). In outline: as §1
For experiment [6], the target named is MAP3K12 (Homo sapiens, UniProt Q12852). Summed up:
as §1

Experiment [7] concerns the target MAP3K19 (Homo sapiens, UniProt Q56UN5). Summed up:
as §1

Experiment [8] deals with MAP3K21 (Homo sapiens, UniProt Q5TCX8). Summed up: as §1
Chain of MAP3K21 (Q5TCX8 whole entry): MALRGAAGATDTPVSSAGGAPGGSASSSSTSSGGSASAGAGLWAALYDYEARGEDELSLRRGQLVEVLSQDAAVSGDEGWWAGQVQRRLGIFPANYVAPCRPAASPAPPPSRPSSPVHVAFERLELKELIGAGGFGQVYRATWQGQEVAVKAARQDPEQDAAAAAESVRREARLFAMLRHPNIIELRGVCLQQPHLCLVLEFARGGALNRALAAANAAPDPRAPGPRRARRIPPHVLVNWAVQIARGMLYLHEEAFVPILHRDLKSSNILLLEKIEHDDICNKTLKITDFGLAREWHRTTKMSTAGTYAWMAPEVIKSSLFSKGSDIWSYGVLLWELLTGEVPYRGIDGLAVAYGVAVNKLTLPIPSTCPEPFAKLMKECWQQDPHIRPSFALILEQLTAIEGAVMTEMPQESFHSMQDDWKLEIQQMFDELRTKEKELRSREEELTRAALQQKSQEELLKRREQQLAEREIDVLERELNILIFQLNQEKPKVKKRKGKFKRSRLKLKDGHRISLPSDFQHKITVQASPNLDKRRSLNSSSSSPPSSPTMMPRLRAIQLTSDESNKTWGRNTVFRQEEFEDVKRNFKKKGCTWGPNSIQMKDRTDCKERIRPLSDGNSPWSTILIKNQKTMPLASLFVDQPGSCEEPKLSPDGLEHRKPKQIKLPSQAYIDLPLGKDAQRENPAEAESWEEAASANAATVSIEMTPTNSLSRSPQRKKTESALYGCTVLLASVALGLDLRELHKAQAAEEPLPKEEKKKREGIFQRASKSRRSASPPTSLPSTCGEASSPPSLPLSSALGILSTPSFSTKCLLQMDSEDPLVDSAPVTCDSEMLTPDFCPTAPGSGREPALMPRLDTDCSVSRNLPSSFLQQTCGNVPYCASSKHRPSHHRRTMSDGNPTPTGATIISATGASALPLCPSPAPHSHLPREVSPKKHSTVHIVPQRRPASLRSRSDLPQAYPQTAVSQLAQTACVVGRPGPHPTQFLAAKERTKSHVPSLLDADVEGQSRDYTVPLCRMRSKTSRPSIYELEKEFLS
Experiment [9] concerns the target MAP3K9 (Homo sapiens, UniProt P80192). In outline: as §1
Experiment [10] deals with MAP4K1 (Homo sapiens, UniProt Q92918). In outline:
as §1

Experiment [11] has as its target MARK2 (Homo sapiens, UniProt Q7KZI7). In outline: as §1
In experiment [12] the target is NEK3 (Homo sapiens, UniProt P51956). In outline:
as §1

Experiment [13] concerns the target NEK4 (Homo sapiens, UniProt P51957). In outline:
as §1

In experiment [14] the target is NEK9 (Homo sapiens, UniProt Q8TD19). Summed up:
as §1

The target of experiment [15] is NUAK1 (Homo sapiens, UniProt O60285). In outline:
as §1

Experiment [16] deals with RIPK1 (Homo sapiens, UniProt Q13546). In outline: as §1
Experiment [17] deals with SRMS (Homo sapiens, UniProt Q9H3Y6). Summed up:
as §1

The target in experiment [18] is WEE2 (Homo sapiens, UniProt P0C1S8). Summed up: as §1
Chain of WEE2 (P0C1S8 whole entry): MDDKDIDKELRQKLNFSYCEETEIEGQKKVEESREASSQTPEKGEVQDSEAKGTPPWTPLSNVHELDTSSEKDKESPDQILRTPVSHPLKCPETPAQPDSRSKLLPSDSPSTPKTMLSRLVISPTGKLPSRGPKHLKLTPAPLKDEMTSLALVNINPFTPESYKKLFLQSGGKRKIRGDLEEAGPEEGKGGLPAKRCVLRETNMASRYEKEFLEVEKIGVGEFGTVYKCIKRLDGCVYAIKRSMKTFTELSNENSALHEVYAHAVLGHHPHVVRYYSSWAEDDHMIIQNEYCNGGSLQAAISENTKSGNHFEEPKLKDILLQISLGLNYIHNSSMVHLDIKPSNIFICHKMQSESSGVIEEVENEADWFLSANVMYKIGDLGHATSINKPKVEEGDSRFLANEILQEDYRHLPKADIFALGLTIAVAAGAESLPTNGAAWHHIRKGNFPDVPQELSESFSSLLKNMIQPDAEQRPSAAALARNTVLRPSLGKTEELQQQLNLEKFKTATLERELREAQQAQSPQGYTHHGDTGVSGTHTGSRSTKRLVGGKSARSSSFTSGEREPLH

Chain of MAP3K9 (P80192 whole entry): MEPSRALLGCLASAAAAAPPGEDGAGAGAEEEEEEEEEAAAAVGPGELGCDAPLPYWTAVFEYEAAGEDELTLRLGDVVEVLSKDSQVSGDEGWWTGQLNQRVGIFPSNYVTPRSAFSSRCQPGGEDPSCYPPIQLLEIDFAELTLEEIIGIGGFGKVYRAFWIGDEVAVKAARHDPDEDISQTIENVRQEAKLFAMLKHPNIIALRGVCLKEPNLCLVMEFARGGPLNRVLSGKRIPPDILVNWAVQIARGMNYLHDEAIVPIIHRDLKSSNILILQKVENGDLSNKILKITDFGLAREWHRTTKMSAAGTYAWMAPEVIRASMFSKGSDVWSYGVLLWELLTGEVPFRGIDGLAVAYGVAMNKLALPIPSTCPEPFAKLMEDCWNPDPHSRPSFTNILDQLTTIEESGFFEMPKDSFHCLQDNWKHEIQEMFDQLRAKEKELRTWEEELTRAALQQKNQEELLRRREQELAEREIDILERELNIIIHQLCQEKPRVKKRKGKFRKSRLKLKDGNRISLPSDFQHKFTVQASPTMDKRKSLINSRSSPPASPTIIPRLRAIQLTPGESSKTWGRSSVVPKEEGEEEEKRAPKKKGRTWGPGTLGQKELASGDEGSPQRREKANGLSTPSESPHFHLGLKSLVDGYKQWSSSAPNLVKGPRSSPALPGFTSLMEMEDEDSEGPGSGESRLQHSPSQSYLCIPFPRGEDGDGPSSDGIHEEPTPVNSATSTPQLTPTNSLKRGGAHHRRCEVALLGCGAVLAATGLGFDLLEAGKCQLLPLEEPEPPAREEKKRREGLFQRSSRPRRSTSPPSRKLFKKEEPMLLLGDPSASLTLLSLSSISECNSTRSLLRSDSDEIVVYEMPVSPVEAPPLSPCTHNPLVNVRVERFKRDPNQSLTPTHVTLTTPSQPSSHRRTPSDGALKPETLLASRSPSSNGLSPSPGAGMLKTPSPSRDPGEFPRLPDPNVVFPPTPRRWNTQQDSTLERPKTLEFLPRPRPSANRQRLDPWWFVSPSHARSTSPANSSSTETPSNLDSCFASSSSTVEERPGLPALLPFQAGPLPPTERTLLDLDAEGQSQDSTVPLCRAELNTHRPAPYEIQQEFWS
Chain of CDKL5 (O76039 whole entry): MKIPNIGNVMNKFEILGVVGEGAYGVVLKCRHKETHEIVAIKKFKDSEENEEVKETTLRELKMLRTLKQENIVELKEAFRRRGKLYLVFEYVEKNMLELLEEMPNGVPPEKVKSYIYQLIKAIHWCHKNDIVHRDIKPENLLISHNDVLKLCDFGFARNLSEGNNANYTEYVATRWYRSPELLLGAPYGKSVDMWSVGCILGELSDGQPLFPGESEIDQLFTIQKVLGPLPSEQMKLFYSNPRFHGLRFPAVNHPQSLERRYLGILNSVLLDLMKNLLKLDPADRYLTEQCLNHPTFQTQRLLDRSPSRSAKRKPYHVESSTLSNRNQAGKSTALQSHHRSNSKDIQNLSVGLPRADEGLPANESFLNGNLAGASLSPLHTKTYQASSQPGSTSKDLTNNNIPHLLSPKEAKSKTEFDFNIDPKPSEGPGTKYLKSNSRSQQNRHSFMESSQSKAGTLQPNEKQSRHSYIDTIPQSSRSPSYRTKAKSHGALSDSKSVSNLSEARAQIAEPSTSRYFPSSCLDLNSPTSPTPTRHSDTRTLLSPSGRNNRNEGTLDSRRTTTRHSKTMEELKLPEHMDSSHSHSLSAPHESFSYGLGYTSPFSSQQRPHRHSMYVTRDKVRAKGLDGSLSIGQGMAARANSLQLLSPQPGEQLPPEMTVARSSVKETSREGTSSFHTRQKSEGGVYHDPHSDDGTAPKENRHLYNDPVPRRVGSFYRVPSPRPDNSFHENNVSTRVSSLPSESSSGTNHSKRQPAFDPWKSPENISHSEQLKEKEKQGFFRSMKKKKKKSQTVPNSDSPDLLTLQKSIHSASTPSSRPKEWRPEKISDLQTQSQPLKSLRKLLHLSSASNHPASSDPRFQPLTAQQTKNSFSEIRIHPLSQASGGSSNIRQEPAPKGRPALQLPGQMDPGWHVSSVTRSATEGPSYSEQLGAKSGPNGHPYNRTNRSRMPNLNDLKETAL
Chain of SRMS (Q9H3Y6 whole entry): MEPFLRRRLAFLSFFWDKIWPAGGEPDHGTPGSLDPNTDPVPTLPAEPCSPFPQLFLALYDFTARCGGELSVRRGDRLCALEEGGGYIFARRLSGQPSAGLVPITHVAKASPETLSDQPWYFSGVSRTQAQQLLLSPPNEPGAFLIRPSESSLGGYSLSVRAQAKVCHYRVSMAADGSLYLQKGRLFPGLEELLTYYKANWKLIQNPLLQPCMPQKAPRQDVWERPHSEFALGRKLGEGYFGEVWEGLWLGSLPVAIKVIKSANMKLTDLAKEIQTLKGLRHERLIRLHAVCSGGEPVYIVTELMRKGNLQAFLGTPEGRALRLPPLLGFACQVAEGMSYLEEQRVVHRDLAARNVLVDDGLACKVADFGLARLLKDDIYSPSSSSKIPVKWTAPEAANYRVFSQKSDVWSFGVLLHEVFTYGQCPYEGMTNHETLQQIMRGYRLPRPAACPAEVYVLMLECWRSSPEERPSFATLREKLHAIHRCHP
Chain of NEK3 (P51956 whole entry): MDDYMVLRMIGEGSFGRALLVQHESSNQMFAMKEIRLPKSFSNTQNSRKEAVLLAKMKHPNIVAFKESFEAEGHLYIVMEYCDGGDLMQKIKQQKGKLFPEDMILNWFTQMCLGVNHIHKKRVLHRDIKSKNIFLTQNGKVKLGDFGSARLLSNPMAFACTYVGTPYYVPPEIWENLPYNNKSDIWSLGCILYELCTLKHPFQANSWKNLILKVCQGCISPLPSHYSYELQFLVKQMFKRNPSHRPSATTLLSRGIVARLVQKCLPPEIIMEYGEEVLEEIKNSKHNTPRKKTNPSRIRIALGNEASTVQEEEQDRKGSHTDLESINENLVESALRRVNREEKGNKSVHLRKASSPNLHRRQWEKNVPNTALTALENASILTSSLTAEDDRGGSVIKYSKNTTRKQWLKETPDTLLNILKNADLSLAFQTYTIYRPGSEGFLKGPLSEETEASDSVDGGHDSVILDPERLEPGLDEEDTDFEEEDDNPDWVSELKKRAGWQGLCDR
Chain of CDK9 (P50750 whole entry): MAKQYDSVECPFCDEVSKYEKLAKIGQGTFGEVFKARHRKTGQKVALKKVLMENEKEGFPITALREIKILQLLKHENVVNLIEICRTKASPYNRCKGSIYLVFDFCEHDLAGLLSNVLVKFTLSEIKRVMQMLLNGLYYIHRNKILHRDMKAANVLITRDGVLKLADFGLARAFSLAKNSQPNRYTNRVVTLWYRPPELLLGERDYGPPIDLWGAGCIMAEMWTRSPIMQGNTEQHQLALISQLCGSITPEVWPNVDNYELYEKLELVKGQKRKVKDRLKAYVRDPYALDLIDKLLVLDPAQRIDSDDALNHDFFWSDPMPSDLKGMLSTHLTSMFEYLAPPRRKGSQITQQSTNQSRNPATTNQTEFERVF

Regarding `C[C@@H](Oc1cc(-c2cnn(C3CCNCC3)c2)cnc1N)c1c(Cl)ccc(F)c1Cl` [crizotinib], the inhibition at 1 µM in [1] was 3%; in [2], 2%; in experiment [3] it was 4%; in [4], 4%; in experiment [5], -4%; in [6], 12%. The inhibition at 1 µM in [7] is 6%; in [8] it was 3%; in [9] it was -1%; in [10] it was 14%; in experiment [11] it was 4%; in experiment [12] it was -2%. The inhibition at 1 µM was -12% in experiment [13]; 1% in [14]; 36% in experiment [15]; 23% in [16]; 0% in experiment [17]; -4% in experiment [18].

(Values after publication PMC8449129, “Single tracer-based protocol for broad-spectrum kinase profiling in live cells with NanoBRET” (STAR Protocols, 2021).)
